Test results as given in publication PMC8065212, “The active form of the influenza cap-snatching endonuclease inhibitor baloxavir marboxil is a tight binding inhibitor” (The Journal of Biological Chemistry, 2021).
Several values for one entry are separate records, joined by “and”; a condition that tells them apart may be missing. Identical values can stand only once. Entries after “also recorded” stand apart in the source; their conditions may differ.

Assays:
FluB-ht PA I38T [1] = molecular target: T1, FluB-ht PA I38T (Influenza B virus, UniProt Q5V8Z9, I38T); type: biochemical, Influenza B (B/Memphis/13/03)
FluB-ht PA I38T [2] = type: biochemical, Influenza B (B/Memphis/13/03)
FluB-ht PA I38T [3] = molecular target: T1, FluB-ht PA I38T; type: biochemical, Influenza B (B/Memphis/13/03); remark: listed apart in the source
FluB-ht PA I38T [4] = molecular target: T1, FluB-ht PA I38T; type: biochemical, Influenza B (B/Memphis/13/03); remark: listed apart in the source
influenza virus = conditions: cited from earlier work
influenza A I38 mutants = conditions: cited from earlier work
influenza B I38 mutants = conditions: cited from earlier work

Row | Structure (SMILES) | slope of plot of IC50 versus enzyme concentration (FluB-ht PA I38T [1]) | decrease in inhibition (difference in IC50), PA I38T versus WT (FluB-ht PA I38T [2]) | increase of Ki^app, PA I38T with respect to WT (FluB-ht PA I38T [2]) | inhibition of endonuclease activity by order of addition (FluB-ht PA I38T [3]) | BXA concentration at which an effect of preincubation is observed (FluB-ht PA I38T [4]) | effect of preincubation length on activity (FluB-ht PA I38T [4]) | increase in EC50 values of mutant viruses (influenza virus) | increase in EC50 values with mutations at position I38 (influenza A I38 mutants) | increase in EC50 values with mutations at position I38 (influenza B I38 mutants)
1 | O=C1c2c(O)c(=O)ccn2N([C@@H]2c3ccccc3SCc3c2ccc(F)c3F)[C@@H]2COCCN12 [BXA, baloxavir acid] | 0.58 and ~0.5 | approximately threefold decrease | ~18 fold | no inhibition; also recorded: not observed regardless of the order of addition | 600 nM | negligible effects; also recorded: time-independent | – | – | –
2 | COC(=O)OCOc1c2n(ccc1=O)N([C@@H]1c3ccccc3SCc3c1ccc(F)c3F)[C@@H]1COCCN1C2=O [BXM, Baloxavir marboxil] | – | – | – | – | – | – | up to 50 fold | up to 50 fold | up to tenfold
